Legend:
human H4 = molecular target: T1, human H4 (Homo sapiens, UniProt Q9H3N8); assay: In vitro histamine H4 receptor cell-based aequorin bioluminescence antagonist assay; settings: CHO-K1 cells expressing human H4, aequorin and Gα16; histamine at EC80
T1 construct: host or cells: CHO-K1, also expressing mitochondrion-targeted aequorin and human Gα16
Description: In vitro Histamine Receptor Cell-Based Assays
The cell-based assays utilize an aequorin dependent bioluminescence signal. Doubly-transfected, stable CHO—K1 cell lines expressing human H1 or H4, mitochondrion-targeted aequorin, and (H4 only) human G protein Gα16 are obtained from Perkin-Elmer. Cells are maintained in F12 (Ham's) growth medium, containing 10% (vol./vol.) fetal bovine serum, penicillin (100 IU/mL), streptomycin (0.1 mg/mL), zeocin (0.25 mg/mL) and geneticin (0.40 mg/mL). Cell media components are from Invitrogen, Inc. One day prior to assay, the growth medium is replaced with the same, excluding zeocin and geneticin.
For assay preparation, growth medium is aspirated, and cells are rinsed with calcium-free, magnesium-free phosphate-buffered saline, followed by two to three minute incubation in Versene (Invitrogen, Inc.) at 37° C. Assay medium (DMEM:F12 [50:50], phenol-red free, containing 1 mg/mL protease-free bovine serum albumin) is added to collect the released cells, which are then centrifuged. The cell pellet is re-suspended in assay medium, centrifuged once more, and re-suspended in assay medium to a final density of 5×10^6 cells/mL. Coelenterazine-h dye (500 μM in ethanol) is added to a final concentration of 5 μM, and mixed immediately. The conical tube containing the cells is then wrapped with foil to protect the light-sensitive dye. The cells are incubated for four hours further at room temperature (approximately 21° C.) with end-over-end rotation to keep them in suspension.
Just before assay, the dye-loaded cells are diluted to 0.75×10^6 cells/mL (H1 receptor) or 1.5×10^6 cells/mL (H4 receptor) with additional assay medium. Cells are dispensed to 1536 well micro-titer plates at 3 μL/well. To assay receptor antagonism, 60 nl of 100× concentration test compounds in 100% dimethyl sulfoxide (DMSO) are dispensed to the wells, one compound per well, by passive pin transfer, and the plates are incubated for 15 minutes at room temperature. […] The pipette dispenses 3 μL/well of agonist (histamine, at twice the final concentration, where final concentration is a previously determined EC80) in assay medium, with concurrent bioluminescence detection. Agonist activity of test compounds is excluded by separate assays that measure response to test compounds immediately, without added histamine agonist.
CCD image capture on the Lumilux includes a 5 second baseline read prior to agonist addition, and generally a 40 second read per plate after agonist addition. A decrease in bioluminescence signal (measured either as area-under-the-curve, or maximum signal amplitude minus minimum signal amplitude) correlates with receptor antagonism in a dose dependent manner. The negative control is DMSO lacking any test compound. For antagonist assays, the positive controls are diphenhydramine (2-Diphenylmethoxy-N,N-dimethylethylamine, 10 μM final concentration, H1 receptor) or JNJ7777120 (1-[(5-Chloro-1H-indol-2-yl)carbonyl]-4-methyl-piperazine, 10 μM final concentration, H4 receptor). Efficacy is measured as a percentage of positive control activity.

human H1 = molecular target: T2, human H1 (Homo sapiens, UniProt P35367); assay: In vitro histamine H1 receptor cell-based aequorin bioluminescence antagonist assay; settings: CHO-K1 cells expressing human H1 and aequorin; histamine at EC80; read-out: H1 Antagonist EC50
T2 construct: host or cells: CHO-K1, also expressing mitochondrion-targeted aequorin
Summary of the method: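 CHO-K1 cells stably expressing human H1 or H4 plus mitochondrial aequorin (H4 also with Gα16), loaded with 5 μM coelenterazine-h for 4 h at ~21 °C. Compounds preincubated 15 min at room temperature, then histamine at EC80 added.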

T2 sequence (P35367 whole entry): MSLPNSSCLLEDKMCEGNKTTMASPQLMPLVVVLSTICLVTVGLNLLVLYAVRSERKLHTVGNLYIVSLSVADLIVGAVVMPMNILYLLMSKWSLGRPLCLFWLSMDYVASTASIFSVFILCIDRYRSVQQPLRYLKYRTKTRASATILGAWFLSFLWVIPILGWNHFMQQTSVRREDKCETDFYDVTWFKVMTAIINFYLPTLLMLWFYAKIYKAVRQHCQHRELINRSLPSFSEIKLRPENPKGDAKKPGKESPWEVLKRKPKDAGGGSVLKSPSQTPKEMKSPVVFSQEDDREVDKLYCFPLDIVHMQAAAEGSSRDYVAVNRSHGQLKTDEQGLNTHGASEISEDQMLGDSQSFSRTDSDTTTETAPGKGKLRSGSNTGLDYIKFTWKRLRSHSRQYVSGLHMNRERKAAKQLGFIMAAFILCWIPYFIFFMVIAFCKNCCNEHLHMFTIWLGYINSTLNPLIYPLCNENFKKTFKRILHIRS

SMILES	EC50 (human H4) [µM]	EC50 (human H1) [µM]
Cc1csc2ncnc(NCc3ccc(N(C)C)cc3)c12 [Example 170, N-{[4-(dimethylamino)phenyl]methyl}-5-methylthieno[2,3-d]pyrimidin-4-amine]	> 10	> 10
Cc1csc2ncnc(NC3CC(C)(C)NC(C)(C)C3)c12 [Example 150, 2,2,6,6-tetramethyl-N-{5-methylthieno[2,3-d]pyrimidin-4-yl}piperidin-4-amine]	> 10	> 10
Cc1csc2ncnc(N3CCCC3CO)c12 (stereo not shown) [Example 193, (1-{5-methylthieno[2,3-d]pyrimidin-4-yl}pyrrolidin-2-yl)methanol]	> 10	> 10
Cc1csc2ncnc(N(C)C)c12 [Example 178, N,N,5-trimethylthieno[2,3-d]pyrimidin-4-amine]	> 10	> 10
Clc1ccc(CCNc2ncnc3[nH]ccc23)cc1 [Example 28, N-(4-chlorophenethyl)-7H-pyrrolo[2,3-d]pyrimidin-4-amine]	> 10	> 10
Cc1csc2ncnc(NCCN3CCCCC3)c12 [Example 107, 5-methyl-N-[2-(piperidin-1-yl)ethyl]thieno[2,3-d]pyrimidin-4-amine]	> 10	> 10
CCN(C)c1ncnc2scc(C)c12 [Example 179, N-ethyl-N,5-dimethylthieno[2,3-d]pyrimidin-4-amine]	> 10	> 10
COc1ccc(N2CCN(c3ncnc4scc(C)c34)CC2)cc1OC [Example 4, 4-(4-(3,4-dimethoxyphenyl)piperazin-1-yl)-5-methylthieno[2,3-d]pyrimidine]	> 10	> 10
Cc1csc2ncnc(N3CCSCC3)c12 [Example 197, 4-{5-methylthieno[2,3-d]pyrimidin-4-yl}thiomorpholine]	> 10	> 10
Cc1csc2ncnc(NCCN3CCCC3)c12 [Example 92, 5-methyl-N-[2-(pyrrolidin-1-yl)ethyl]thieno[2,3-d]pyrimidin-4-amine]	> 10	> 10
Cc1csc2ncnc(NCCN(C(C)C)C(C)C)c12 [Example 137]	> 10	> 10
CCN(CC)CCNc1ncnc2scc(C)c12 [Example 94, diethyl[2-({5-methylthieno[2,3-d]pyrimidin-4-yl}amino)ethyl]amine]	> 10	> 10
Cc1csc2ncnc(N3C[C@@H](C)N[C@@H](C)C3)c12 [Example 203, (3R,5S)-3,5-dimethyl-1-{5-methylthieno[2,3-d]pyrimidin-4-yl}piperazine]	> 10	> 10
CCCNc1ncnc2scc(C)c12 [Example 54, 5-methyl-N-propylthieno[2,3-d]pyrimidin-4-amine]	> 10	> 10
Cc1csc2ncnc(NCc3ccncc3)c12 [Example 86, 5-methyl-N-(pyridin-4-ylmethyl)thieno[2,3-d]pyrimidin-4-amine]	> 10	> 10
Cc1csc2ncnc(NCCCN3CCCC3=O)c12 [Example 132, 1-[3-({5-methylthieno[2,3-d]pyrimidin-4-yl}amino)propyl]pyrrolidin-2-one]	> 10	> 10
COc1ccc(C(=O)CNc2ncnc3scc(C)c23)cc1 [Example 174, 1-(4-methoxyphenyl)-2-({5-methylthieno[2,3-d]pyrimidin-4-yl}amino)ethan-1-one]	> 10	> 10
Cc1csc2ncnc(NCc3ccccc3OC(F)(F)F)c12 [Example 172, 5-methyl-N-{[2-(trifluoromethoxy)phenyl]methyl}thieno[2,3-d]pyrimidin-4-amine]	> 10	> 10
Cc1ccc(S(=O)(=O)NCCNc2ncnc3scc(C)c23)cc1 [Example 177, 4-methyl-N-[2-({5-methylthieno[2,3-d]pyrimidin-4-yl}amino)ethyl]benzene-1-sulfonamide]	> 10	> 10
Cc1csc2ncnc(N(CCO)CCO)c12 [Example 198, 2-[(2-hydroxyethyl)({5-methylthieno[2,3-d]pyrimidin-4-yl})amino]ethan-1-ol]	> 10	> 10
Cc1csc2ncnc(CNCc3ccc(Cl)cc3)c12 [Example 35, N-(4-chlorobenzyl)-1-(5-methylthieno[2,3-d]pyrimidin-4-yl)methanamine]	> 10	> 10
Cc1ccc([C@@H](C)Nc2ncnc3scc(C)c23)cc1 [Example 115, 5-methyl-N-[(1R)-1-(4-methylphenyl)ethyl]thieno[2,3-d]pyrimidin-4-amine]	> 10	> 10

Results, then the compound that gave them:

EC50 (human H4) [µM]	EC50 (human H1) [µM]	SMILES
> 10	> 10	Cc1csc2ncnc(N3CCN(c4cccc(Cl)c4)CC3)c12 [Example 265, 1-(3-chlorophenyl)-4-{5-methylthieno[2,3-d]pyrimidin-4-yl}piperazine]
> 10	> 10	Cc1csc2ncnc(N(CCN(C)C)Cc3ccccc3)c12 [Example 244, N-benzyl-N-[2-(dimethylamino)ethyl]-5-methylthieno[2,3-d]pyrimidin-4-amine]
> 10	> 10	CCN(c1ncnc2scc(C)c12)C1CCCCC1 [Example 210, N-cyclohexyl-N-ethyl-5-methylthieno[2,3-d]pyrimidin-4-amine]
> 10	> 10	COc1cc2c(cc1OC)CN(c1ncnc3scc(C)c13)CC2 [Example 286, 6,7-dimethoxy-2-{5-methylthieno[2,3-d]pyrimidin-4-yl}-1,2,3,4-tetrahydroisoquinoline]
> 10	> 10	C#CCN(Cc1ccc(Cl)cc1Cl)c1ncnc2scc(C)c12 [Example 281, N-[(2,4-dichlorophenyl)methyl]-5-methyl-N-(prop-2-yn-1-yl)thieno[2,3-d]pyrimidin-4-amine]
> 10	> 10	Cc1csc2ncnc(N3CCCC4CCCCC43)c12 (stereo not shown) [Example 222, 1-{5-methylthieno[2,3-d]pyrimidin-4-yl}-decahydroquinoline]
> 10	> 10	COc1ccc(CCN(C)c2ncnc3scc(C)c23)cc1OC [Example 264, N-[2-(3,4-dimethoxyphenyl)ethyl]-N,5-dimethylthieno[2,3-d]pyrimidin-4-amine]
> 10	> 10	Cc1csc2ncnc(N(C)C3CCCCC3)c12 [Example 200, N-cyclohexyl-N,5-dimethylthieno[2,3-d]pyrimidin-4-amine]
> 10	> 10	COc1ccccc1N1CCN(c2ncnc3scc(C)c23)CC1 [Example 262, 1-(2-methoxyphenyl)-4-{5-methylthieno[2,3-d]pyrimidin-4-yl}piperazine]
> 10	> 10	Cc1csc2ncnc(N3CCCC(CO)C3)c12 (stereo not shown) [Example 204, (1-{5-methylthieno[2,3-d]pyrimidin-4-yl}piperidin-3-yl)methanol]
> 10	> 10	Cc1ccc(N2CCN(c3ncnc4scc(C)c34)CC2)cc1C [Example 257, 1-(3,4-dimethylphenyl)-4-{5-methylthieno[2,3-d]pyrimidin-4-yl}piperazine]
> 10	> 10	CCOC(=O)CC1C(=O)NCCN1c1ncnc2scc(C)c12 (stereo not shown) [Example 249, ethyl 2-(1-{5-methylthieno[2,3-d]pyrimidin-4-yl}-3-oxopiperazin-2-yl)acetate]
> 10	> 10	Cc1csc2ncnc(N(CCCO)Cc3ccccn3)c12 [Example 237, 3-({5-methylthieno[2,3-d]pyrimidin-4-yl}(pyridin-2-ylmethyl)amino)propan-1-ol]

From US20100063047A1 (KALYPSYS, INC., priority 2008, published 2010)
